Common to all, as to assay: growth of human tumour cells (NCI), 48 h
Test [1] deals with M14 melanoma.
The subject of test [2] is NCI-H226 lung.
For test [3], the system named is SK-OV-3 ovarian.
Test [4] deals with SF-295 CNS.
In test [5] the test system is A498 renal.
Test [6] deals with SK-MEL-5 melanoma.
Test [7] concerns OVCAR-4 ovarian.
Test [8] has as its system NCI-H522 lung.
Test [9] deals with HL-60(TB) leukemia.
Test [10] deals with MALME-3M melanoma.

Molecules are shown by their SMILES. Several values for one entry are separate records, joined by “and”; a condition that tells them apart may be missing. Equal values may be shown once.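 In this assay, cells in 96-well plates receive the compound at five concentrations for 48 hours. Endpoints are linearly interpolated between the surrounding concentrations. Abbreviation: GI50, concentration required for 50% inhibition of growth. The concentration for full growth arrest is given as TGI.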 Where only a bound is given, the exact number is not on record here.

Turning to `COc1cc(/C=C2\CC3C4CCC5=CC(=O)CC[C@]5(C)C4CC[C@]3(C)C2=O)ccc1OCCN1CCCCC1` (some centres undefined), the GI50 in test [1] is 1.87 µM; in test [2], 5.24 µM; in [3], 20.5 µM; in [4] it was 2.02 µM; in test [5] it was 1.9 µM; in test [6], 1.51 µM. In addition, the GI50 in [7] is 8.35 µM; in test [8] it was 8.95 µM. Besides, the TGI in test [1] came to 3.46 µM; in test [2], 21.1 µM; in [3] it was 48.7 µM; in test [4], 4.24 µM; in [5], 12.1 µM; in test [6] it was 3.09 µM. Also, the results for the TGI in test [7] and in test [8] were 92.2 µM and above 100 µM, respectively.
With `C=C1CCC2(C(C)=O)COC1(C)O2` (centres undefined), the TGI in [1], in test [9], in test [2], in test [3], in [4] and in [6] was above 100 µM in each case. Besides, the TGI is above 100 µM in test [10] and above 10 µM in test [8].
On to `CC(O)c1ccc(C(O)/C(=N\NC(=O)c2ccncc2)c2nc3ccc([N+](=O)[O-])cc3[nH]c2=O)cc1` (centres undefined), for which the TGI in [1], in test [9], in test [2], in [3], in [4] and in [6] was above 100 µM in each case. Moreover, the TGI in [10], in [7] and in test [8] was above 100 µM in each case.
For the molecule `O=C(O)c1ccccc1C1c2ccc(Cl)cc2Oc2cc(Cl)ccc21`, the TGI in test [1], in [9], in test [3], in test [4], in [6] and in test [10] was above 100 µM each time. Also, the TGI in test [7] and in [8] was above 100 µM in each case.
As to `Cc1cc(C)c(C2=NO[C@@H]3C(=O)N(c4ccc(Cc5ccc(N6C(=O)[C@H]7C(c8c(C)cc(C)cc8C)=NO[C@H]7C6=O)cc5)cc4)C(=O)[C@H]23)c(C)c1`, the TGI in [1], in test [9], in [2], in [3], in test [4] and in test [5] was above 100 µM throughout. For the same molecule, the TGI in test [6], in test [10] and in test [7] was above 100 µM each time.
`Cc1nc(-n2nc(-c3ccccc3)cc2-c2ccccc2)sc1C(/C=C/c1ccc([N+](=O)[O-])cc1)=N/NC(N)=S`: the TGI in test [1] is above 100 µM; in test [9], 25.6 µM; in [2], above 100 µM; in test [3], above 100 µM; in test [4] it was above 100 µM; in test [5], above 100 µM. In addition, the TGI in test [6] and in [10] was above 100 µM in each case.
For the molecule `Cc1ccc(S(=O)(=O)OC2CSSCC2OS(=O)(=O)c2ccc(C)cc2)cc1` (centres undefined), the TGI in test [1] came to 25.1 µM; in test [9] it was 22 µM; in test [2] it was 33.6 µM; in test [3], 38.4 µM; in test [4], 30.5 µM; in test [6], 29.7 µM. Moreover, the TGI in test [10] is 34.3 µM; in test [7], 23.3 µM; in [8], 22.8 µM.
On to `COC(=O)[C@H](C)[C@@H]1CC[C@](C)(CCC2=C(C)CCCC2(C)C)OO1`, for which the TGI in test [1], in [9], in test [3], in [4], in test [6] and in test [10] was above 25 µM throughout. Also, the TGI in test [7] and in test [8] was above 25 µM each time.
As for `Cn1cc(-c2ccc3nnc(C(F)(F)c4ccc5ncccc5c4)n3n2)cn1`, the GI50 is above 100 µM in test [1]; above 100 µM in [9]; 58.5 µM in test [2]; above 86.4 µM in [3]; 3.82 µM in [4]; 24.8 µM in test [5]. Besides, the figures for the GI50 in [6], in [10] and in test [7] were 43.2 µM, 64.1 µM and 38.5 µM, respectively. The TGI in [1], in [9], in test [2], in [3], in test [4] and in test [5] was above 100 µM throughout. Besides, the TGI in [6], in test [10] and in [7] was above 100 µM in each case.
For `COc1ccc2c(c1)CC1N(C)CCC13CCCCC23` (centres undefined), the TGI in test [1], in test [9], in test [2], in [3], in [4] and in test [6] was above 100 µM throughout. The TGI in test [10], in test [7] and in test [8] was above 100 µM each time.
For the molecule `C=CCn1c(=O)c(C(=O)NC(=O)OCC)cn(C2CCCCC2)c1=O`, the TGI in test [1], in test [9], in [2], in test [3], in test [4] and in test [5] was above 100 µM in each case. Also, the TGI in [6], in test [10] and in test [7] was above 100 µM in each case.
For `COc1cc(OC)c(/C=C/C(=O)c2c(O)cc(OC)c(C3CCN(C)CC3)c2OC)c(OC)c1`, the GI50 is 1.67 µM in test [1]; 2.17 µM in test [9]; 1.56 µM in test [4]; 1.6 µM in [5]; 1.64 µM in test [6]; 1.4 µM in [7]. In addition, the GI50 in test [8] was 1.86 µM. Moreover, the TGI stood at 3.05 µM in test [1]; 3.99 µM in [9]; 2.98 µM in [4]; 3.02 µM in test [5]; 3.07 µM in [6]; 3 µM in test [7]. This molecule also came in with a TGI in test [8] of 3.31 µM.
As to `COC1C(C)OC(OC2CC(C)(O)Cc3cc4c(c(O)c32)C(=O)c2c(O)cc3c(c2C4=O)OC2OC3(C)C(O)C(N(C)C)C2O)C(OC)C1(C)OC` (centres undefined), the GI50 in test [1] was 0.141 µM; in test [9], 0.0711 µM and 0.105 µM; in test [2], 0.0198 µM; in [4], 0.0538 µM and 0.0356 µM; in test [10] it was 0.0178 µM; in [8], 0.093 µM and 0.0186 µM. Also, the TGI was 0.588 µM and 0.535 µM in test [9]; 0.395 µM and 0.113 µM in test [2]; 1.52 µM and 10.7 µM in [3]; 0.383 µM and 0.0944 µM in [10]; 1.61 µM in [7].
Turning to `NNC(=S)NN/C=C(\C=Nc1ccccc1)[N+](=O)[O-]`, the TGI in test [1], in [9], in [2], in test [3], in test [4] and in [10] was above 100 µM throughout. In addition, the TGI in test [7] and in [8] was above 100 µM each time.
`COc1cc(CC2C(=O)OCC2[C@@H](OC(C)=O)c2ccc3c(c2)OCO3)c(Br)c(OC)c1OC` (some centres undefined): the TGI in [1], in [9], in [3], in test [4], in test [6] and in test [10] was above 100 µM in each case. Moreover, the TGI in test [7] and in test [8] was above 100 µM each time.
As for `COc1ccc(NC(=O)C2=CC(=O)c3ccc(O)cc3C2=O)c(OC)c1`, the TGI in test [1], in [9], in test [2], in test [4], in [5] and in [6] was above 100 µM throughout. For the same molecule, the TGI in test [10] and in test [7] was above 100 µM in each case.
Regarding `O=C1c2ccccc2-c2ccccc2C1(Cl)Cl`, the GI50 in test [1] is 1.26 µM; in [9], 2.29 µM; in test [2] it was 1.79 µM; in test [3] it was 1.7 µM; in [4], 1.27 µM; in [5], 1.09 µM. Further, the GI50 in test [6] is 1.32 µM; in [10] it was 0.98 µM; in test [7], 0.19 µM. In addition, the TGI in test [1] amounted to 2.65 µM; in test [9], 5.93 µM; in test [2], 3.49 µM; in [3], 3.08 µM; in [4], 3 µM; in test [5], 2.77 µM. In addition, the results for the TGI in test [6], in test [10] and in test [7] were 2.63 µM, 2.3 µM and 0.337 µM, respectively.
For `COc1cc2oc(-c3ccc(O)cc3)cc(=O)c2c(OC)c1O`, the TGI in test [1], in test [9], in [2], in test [3], in test [4] and in test [6] was above 100 µM each time. In addition, the TGI in test [10], in test [7] and in test [8] was above 100 µM throughout.
Consider `C=CNC(=S)n1nc(-c2ccccc2NC(=O)C(F)(F)F)c(=O)n(C(=S)NC=C)c1=S`, for which the TGI is above 100 µM in test [1]; 86.6 µM in test [2]; 73 µM in test [3]; 81.6 µM in test [4]; 35.5 µM in test [6]; above 100 µM in test [10]. The values for the TGI in test [7] and in test [8] were 19.6 µM and 60.5 µM, respectively.
Take `O=C(O)CCCc1cc2c(s1)-c1cccc3cccc-2c13`: the TGI in [1] was above 100 µM; in test [9] it was 57.5 µM; in test [2], above 100 µM; in [3], 75.4 µM; in test [4], above 100 µM; in test [10] it was above 100 µM. In addition, the figures for the TGI in test [7] and in test [8] were above 100 µM and 51.1 µM, respectively.
As for `ClCc1ccc(-c2ccc(Cn3cnc4c(Cl)ncnc43)cc2)cc1`, the GI50 in test [1] was 2.69 µM; in [9] it was 2.18 µM; in [2], 1.81 µM; in test [3], 1.98 µM; in test [4] it was 1.92 µM; in test [5], 20.5 µM. For the same molecule, the GI50 in test [6] was 2.49 µM; in test [7], 1.46 µM; in test [8], 4.01 µM. Moreover, the TGI in test [1] amounted to 11.8 µM; in test [9], 5.59 µM; in test [2], 3.89 µM; in [3] it was 6.14 µM; in [4], 4.89 µM; in test [5], 37 µM. In addition, the TGI in test [6] was 7.17 µM; in test [7], 4.28 µM; in test [8], above 100 µM.
Turning to `O=C(CC(=O)N1N=C(c2ccccc2)C(N=Nc2ccccc2Cl)C1=O)Nc1ccccc1Cl` (centres undefined), the TGI in test [1] is above 100 µM; in [9], 25.9 µM; in [2], above 100 µM; in [3] it was above 100 µM; in test [4] it was 65.3 µM; in test [6], 52.5 µM. Also, the figures for the TGI in test [7] and in [8] were 63.2 µM and above 100 µM, respectively.
As for `O=[N+]([O-])c1cccc([I+]c2ccccc2)c1`, the GI50 is 11.1 µM in test [1]; 4.93 µM in test [9]; 7.12 µM in test [2]; 13.8 µM in [3]; 10.9 µM in test [4]; 10.4 µM in test [5]. The GI50 is 2.27 µM in test [6], 7.13 µM in [7] and 11.3 µM in test [8]. Also, the TGI in [1] is 33.5 µM; in test [9], 41.2 µM; in test [2] it was 21.3 µM; in test [3], 27.5 µM; in test [4], 25.6 µM; in test [5], 28.4 µM. For the same molecule, the figures for the TGI in test [6], in [7] and in test [8] were 10.8 µM, 36 µM and 23.5 µM, respectively.
In the case of `Cn1c2c(c3ccccc31)CCN(CCCN1CCN(c3ccccc3)CC1)C2=O`, the TGI was determined as 37 µM in test [1]; 33.6 µM in test [9]; 37 µM in test [3]; 37.8 µM in test [4]; 32.8 µM in [5]; 42.1 µM in test [6]. Further, the TGI in test [8] came out at 30.9 µM.

Source of the values: PubChem BioAssay (NCI).
